Results taken from patent publication US10414811B2, “Protease-resistant lipidated GLP-1 analogs” (MEDIMMUNE LIMITED, priority 2015, dated 2019).
pEC50: −log10 of the molar value. Where two headings read alike, the source gives them in different places. Numbered stars: 1 amine (or outer) side, 2 acyl side, 3 side chain; on linkers, the order of the positions; unused ones are H or OH. Square brackets hold non-standard residues; d marks the D form. Side chains are listed from the residue outwards. Peptide text beside a SMILES is read from it. * marks the point of attachment. γGlu = O=C(O)[C@H](CCC(=O)[*:2])N[*:1]; αMeF = C[C@](N)(Cc1ccccc1)C(=O)O; αMeK = C[C@](N)(CCCCN)C(=O)O; Lauroyl = CCCCCCCCCCCC(=O)*; αMeS = C[C@](N)(CO)C(=O)O; AEEA = NCCOCCOCC(=O)O; Aib = CC(C)(N)C(=O)O

What was measured:
Type in all cases: cell-based
[1] = biological target: T1, human GLP-1 receptor (GLP-1R) (Homo sapiens, UniProt P43220); assay: cAMP assay, human GLP-1R cells; conditions: tris-lipidated peptides
T1 construct: expressed in transfected cells
T1 sequence (P43220 24-463): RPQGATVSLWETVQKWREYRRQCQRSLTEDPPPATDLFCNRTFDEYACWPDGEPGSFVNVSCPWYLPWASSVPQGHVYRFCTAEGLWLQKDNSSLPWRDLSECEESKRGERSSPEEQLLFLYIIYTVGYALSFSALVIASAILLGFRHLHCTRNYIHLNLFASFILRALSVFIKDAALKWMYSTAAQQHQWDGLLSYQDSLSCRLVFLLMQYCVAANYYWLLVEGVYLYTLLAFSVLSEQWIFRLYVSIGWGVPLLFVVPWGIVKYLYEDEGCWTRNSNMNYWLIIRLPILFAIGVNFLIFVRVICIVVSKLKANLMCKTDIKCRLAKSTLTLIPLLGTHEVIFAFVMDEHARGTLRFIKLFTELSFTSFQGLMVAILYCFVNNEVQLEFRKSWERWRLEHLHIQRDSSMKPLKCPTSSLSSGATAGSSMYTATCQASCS
Experimental: (§1) Sample dilutions are made in duplicate.
(§2) A frozen cryo-vial of cells expressing the receptor of interest is thawed rapidly in a water-bath, transferred to pre-warmed assay buffer and spun at 240×g for 5 minutes. Cells are re-suspended in assay buffer at a batch-dependent optimized concentration (e.g. hGCGR cells at 2×10^5 cells/ml, hGLP-1R and hGIPR cells at 1×10^5 cells/ml).
(§3) To this, 5 μL cell suspension is added and the plates incubated at room temperature for 30 minutes.
(§4) cAMP levels are measured using a commercially available cAMP dynamic 2 HTRF kit (Cisbio, Cat #62AM4PEJ), following the two step protocol as per manufacturer's recommendations. In brief; anti-cAMP cryptate (donor fluorophore) and cAMP-d2 (acceptor fluorophore) are made up separately by diluting each 1/20 in conjugate & lysis buffer provided in the kit. 5 μL anti-cAMP cryptate is added to wells of the assay plate, and 5 μL cAMP-d2 is added to wells except non-specific binding (NSB) wells, to which conjugate and lysis buffer are added. […] EC50 values of the synthetic peptides determined in cAMP assays are then determined.
(§5) Data is transformed to % Delta F as described in the manufacturer's guidelines and analyzed by 4-parameter logistic fit to determine EC50 values. […] To compare the balance of activities at the GLP-1R and GCGR between different peptides and across different conditions, these can be correlated, where the EC50's are related to those of comparator peptides.

[2] = biological target: T2, human glucagon receptor (GCGR) (Homo sapiens, UniProt P47871); assay: cAMP assay, human GCGR cells
T2 construct: expressed in transfected cells
T2 sequence (P47871 26-477): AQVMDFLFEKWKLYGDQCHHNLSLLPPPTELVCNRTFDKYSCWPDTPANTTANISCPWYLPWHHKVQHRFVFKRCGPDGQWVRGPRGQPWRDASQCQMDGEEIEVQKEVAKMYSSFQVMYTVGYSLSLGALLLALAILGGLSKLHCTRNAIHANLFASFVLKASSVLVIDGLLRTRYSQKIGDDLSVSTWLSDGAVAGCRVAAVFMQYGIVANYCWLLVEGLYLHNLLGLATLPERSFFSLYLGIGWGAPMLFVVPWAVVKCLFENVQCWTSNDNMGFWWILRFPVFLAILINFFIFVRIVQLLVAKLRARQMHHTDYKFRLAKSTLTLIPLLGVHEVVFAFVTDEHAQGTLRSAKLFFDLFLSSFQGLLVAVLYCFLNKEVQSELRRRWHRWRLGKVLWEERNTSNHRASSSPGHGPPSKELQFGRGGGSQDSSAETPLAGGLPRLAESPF
Experimental: as §1, §2, §3, §4, §5

[3] = biological target: T3, human glucose-dependent insulinotropic peptide receptor (GIPR) (Homo sapiens, UniProt P48546); assay: cAMP assay, human GIPR cells
T3 construct: expressed in transfected cells
T3 sequence (P48546 22-466): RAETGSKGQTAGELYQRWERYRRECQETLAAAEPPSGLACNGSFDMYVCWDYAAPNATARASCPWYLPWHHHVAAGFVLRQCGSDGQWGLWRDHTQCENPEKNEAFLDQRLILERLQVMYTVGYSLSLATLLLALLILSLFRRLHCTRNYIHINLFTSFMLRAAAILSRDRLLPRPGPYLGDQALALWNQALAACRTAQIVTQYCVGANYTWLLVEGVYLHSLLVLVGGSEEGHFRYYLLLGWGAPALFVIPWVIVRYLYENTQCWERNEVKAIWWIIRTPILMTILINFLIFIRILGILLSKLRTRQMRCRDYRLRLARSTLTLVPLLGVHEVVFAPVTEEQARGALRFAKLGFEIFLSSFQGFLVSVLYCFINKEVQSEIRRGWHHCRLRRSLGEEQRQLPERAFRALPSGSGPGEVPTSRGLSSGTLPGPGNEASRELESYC
Experimental: as §1, §2, §3, §4, §5

[4] = cAMP assay, first determination (n1), read-out: Primary assay EC50 Gluc-R (n1)
[5] = cAMP assay, second determination (n2), read-out: Primary assay EC50 Gluc-R (n2)
[6] = cAMP assay, first determination (n1), read-out: Primary assay EC50 GIP-R (n1)
[7] = cAMP assay, second determination (n2), read-out: Primary assay EC50 GIP-R (n2)

| EC50 ([1]; mean of n1 and n2, read-out: Primary assay EC50 Mean pM GLP-1R) [pM] | pEC50 ([1]; replicate n1, read-out: Primary assay EC50 GLP-1R n1) | pEC50 ([1]; replicate n2, read-out: Primary assay EC50 GLP-1R n2) | pEC50 ([2]; tris-lipidated peptides, second replicate, read-out: Primary assay EC50 Gluc-R (n2)) | pEC50 ([3]; tris-lipidated peptides, first replicate, read-out: Primary assay EC50 GIP-R (n1)) | pEC50 [2, 4] | pEC50 [2, 5] | pEC50 [3, 6] | pEC50 [3, 7] | Compound |
| --- | --- | --- | --- | --- | --- | --- | --- | --- | --- |
| 73.5 | 10.20 | 10.07 | 7.70 | 7.70 |  |  |  |  | CCCCCCCCCCCC(=O)N[C@@H](CCC(=O)NCCOCCOCC(=O)NCCOCCOCC(=O)NCCCC[C@H](NC(=O)CNC(=O)[C@H](CCC(=O)O)NC(=O)[C@H](CCCCNC(=O)COCCOCCNC(=O)COCCOCCNC(=O)CC[C@H](NC(=O)CCCCCCCCCCC)C(=O)O)NC(=O)[C@H](Cc1ccc(O)cc1)NC(=O)[C@H](CO)NC(=O)[C@](C)(CO)NC(=O)[C@@H](NC(=O)[C@H](CC(=O)O)NC(=O)[C@H](CO)NC(=O)[C@@H](NC(=O)[C@](C)(Cc1ccccc1)NC(=O)[C@H](CO)NC(=O)CNC(=O)[C@H](CCC(=O)O)NC(=O)C(C)(C)NC(=O)[C@@H](N)Cc1c[nH]cn1)[C@@H](C)O)C(C)C)C(=O)N[C@@H](C)C(=O)N[C@@H](C)C(=O)N[C@@](C)(CCCCN)C(=O)N[C@@H](CCC(=O)O)C(=O)N[C@@H](Cc1ccccc1)C(=O)N[C@H](C(=O)N[C@@H](C)C(=O)N[C@@H](CCCCNC(=O)COCCOCCNC(=O)COCCOCCNC(=O)CC[C@H](NC(=O)CCCCCCCCCCC)C(=O)O)C(=O)N[C@H](C(=O)N[C@H](C(=O)N[C@@H](CCC(=O)O)C(=O)NCC(=O)NCC(N)=O)C(C)C)C(C)C)[C@@H](C)CC)C(=O)O [compound 468] (H-H[Aib]EGS[αMeF]TSDV[αMeS]SYK([AEEA-AEEA-γGlu-Lauroyl])EGK([AEEA-AEEA-γGlu-Lauroyl])AA[αMeK]EFIAK([AEEA-AEEA-γGlu-Lauroyl])VVEGG-NH2) |
|  |  |  |  |  | 6.41 | 6.62 | 6.32 | 6.32 | CC[C@H](C)[C@H](NC(=O)[C@H](Cc1ccccc1)NC(=O)[C@H](CCC(=O)O)NC(=O)[C@H](CCCCN)NC(=O)[C@H](C)NC(=O)[C@H](C)NC(=O)[C@H](CCC(N)=O)NC(=O)CNC(=O)[C@H](CCC(=O)O)NC(=O)[C@H](CC(C)C)NC(=O)[C@H](Cc1ccc(O)cc1)NC(=O)[C@H](CO)NC(=O)C(C)(C)NC(=O)[C@@H](NC(=O)[C@H](CC(=O)O)NC(=O)[C@H](CO)NC(=O)[C@@H](NC(=O)[C@H](Cc1ccccc1)NC(=O)[C@@H](NC(=O)CNC(=O)[C@H](CCC(=O)O)NC(=O)C(C)(C)NC(=O)[C@@H](N)Cc1c[nH]cn1)[C@@H](C)O)[C@@H](C)O)C(C)C)C(=O)N[C@@H](C)C(=O)N[C@@H](Cc1c[nH]c2ccccc12)C(=O)N[C@@H](CC(C)C)C(=O)N[C@H](C(=O)N[C@@H](CCCCN)C(=O)NCC(=O)N[C@@H](CCCNC(=N)N)C(N)=O)C(C)C [compound 22] (H-H[Aib]EGTFTSDV[Aib]SYLEGQAAKEFIAWLVKGR-NH2; N-terminus assumed) |
|  |  |  |  |  | ≤ 7.51 | ≤ 7.51 | ≤ 7.51 | ≤ 7.51 | CC[C@H](C)[C@H](NC(=O)[C@](C)(Cc1ccccc1)NC(=O)[C@H](CCC(=O)O)NC(=O)[C@H](CCC(=O)O)NC(=O)[C@H](C)NC(=O)[C@H](C)NC(=O)[C@H](CCC(=O)O)NC(=O)CNC(=O)[C@H](CCC(=O)O)NC(=O)[C@H](CC(C)C)NC(=O)[C@](C)(Cc1ccccc1)NC(=O)[C@H](CO)NC(=O)[C@](C)(CO)NC(=O)[C@@H](NC(=O)[C@H](CC(=O)O)NC(=O)[C@H](CO)NC(=O)[C@@H](NC(=O)[C@](C)(Cc1ccccc1)NC(=O)[C@H](CO)NC(=O)CNC(=O)[C@H](CCC(=O)O)NC(=O)C(C)(C)NC(=O)[C@@H](N)Cc1c[nH]cn1)[C@@H](C)O)C(C)C)C(=O)N[C@@H](C)C(=O)N[C@@](C)(Cc1ccccc1)C(=O)N[C@H](C(=O)N[C@H](C(=O)N[C@@H](CCC(=O)O)C(=O)NCC(=O)NCC(N)=O)C(C)C)C(C)C [compound 44] (H-H[Aib]EGS[αMeF]TSDV[αMeS]S[αMeF]LEGEAAEE[αMeF]IA[αMeF]VVEGG-NH2) |
|  |  |  |  |  | ≤ 6.47 | ≤ 6.47 | ≤ 6.47 | ≤ 6.47 | CC[C@H](C)[C@H](NC(=O)[C@H](Cc1ccccc1)NC(=O)[C@H](CCC(=O)O)NC(=O)[C@H](CCCCN)NC(=O)[C@H](C)NC(=O)[C@H](C)NC(=O)[C@H](CCC(N)=O)NC(=O)CNC(=O)[C@H](CCC(=O)O)NC(=O)[C@H](CC(C)C)NC(=O)[C@H](Cc1ccc(O)cc1)NC(=O)[C@H](CO)NC(=O)[C@](C)(CO)NC(=O)[C@@H](NC(=O)[C@H](CC(=O)O)NC(=O)[C@H](CO)NC(=O)[C@@H](NC(=O)[C@H](Cc1ccccc1)NC(=O)[C@@H](NC(=O)CNC(=O)[C@H](CCC(=O)O)NC(=O)C(C)(C)NC(=O)[C@@H](N)Cc1c[nH]cn1)[C@@H](C)O)[C@@H](C)O)C(C)C)C(=O)N[C@@H](C)C(=O)N[C@@H](Cc1c[nH]c2ccccc12)C(=O)N[C@@H](CC(C)C)C(=O)N[C@H](C(=O)N[C@@H](CCCCN)C(=O)NCC(=O)N[C@@H](CCCNC(=N)N)C(N)=O)C(C)C [compound 21] |
|  |  |  |  |  | ≤ 7.59 | ≤ 7.59 | ≤ 7.59 | ≤ 7.59 | CC[C@H](C)[C@H](NC(=O)[C@](C)(Cc1ccccc1)NC(=O)[C@H](CCC(=O)O)NC(=O)[C@H](CCCCNC(=O)COCCOCCNC(=O)COCCOCCNC(=O)CCCCCCCCCCCCCCCCC(=O)O)NC(=O)[C@H](C)NC(=O)[C@H](C)NC(=O)[C@H](CCC(=O)O)NC(=O)CNC(=O)[C@H](CCC(=O)O)NC(=O)[C@H](CC(C)C)NC(=O)[C@](C)(Cc1ccccc1)NC(=O)[C@H](CO)NC(=O)[C@](C)(CO)NC(=O)[C@@H](NC(=O)[C@H](CC(=O)O)NC(=O)[C@H](CO)NC(=O)[C@@H](NC(=O)[C@](C)(Cc1ccccc1)NC(=O)[C@H](CO)NC(=O)CNC(=O)[C@H](CCC(=O)O)NC(=O)C(C)(C)NC(=O)[C@@H](N)Cc1c[nH]cn1)[C@@H](C)O)C(C)C)C(=O)N[C@@H](C)C(=O)N[C@@](C)(Cc1ccccc1)C(=O)N[C@H](C(=O)N[C@H](C(=O)N[C@@](C)(CCCCN)C(=O)NCC(=O)NCC(N)=O)C(C)C)C(C)C [compound 162] |
|  |  |  |  |  | ≤ 7.57 | ≤ 7.57 | ≤ 7.57 | ≤ 7.57 | CCCCCCCCCCCC(=O)N[C@@H](CCC(=O)N[C@@H](CCC(=O)NCCCC[C@H](NC(=O)[C@H](C)NC(=O)[C@H](C)NC(=O)[C@H](CCC(=O)O)NC(=O)CNC(=O)[C@H](CCC(=O)O)NC(=O)[C@H](CC(C)C)NC(=O)[C@](C)(Cc1ccccc1)NC(=O)[C@H](CO)NC(=O)[C@](C)(CO)NC(=O)[C@@H](NC(=O)[C@H](CC(=O)O)NC(=O)[C@H](CO)NC(=O)[C@@H](NC(=O)[C@](C)(Cc1ccccc1)NC(=O)[C@H](CO)NC(=O)CNC(=O)[C@H](CCC(=O)O)NC(=O)C(C)(C)NC(=O)[C@@H](N)Cc1c[nH]cn1)[C@@H](C)O)C(C)C)C(=O)N[C@@H](CCC(=O)O)C(=O)N[C@@](C)(Cc1ccccc1)C(=O)N[C@H](C(=O)N[C@@H](C)C(=O)N[C@@](C)(Cc1ccccc1)C(=O)N[C@H](C(=O)N[C@H](C(=O)N[C@@](C)(CCCCN)C(=O)NCC(=O)NCC(N)=O)C(C)C)C(C)C)[C@@H](C)CC)C(=O)O)C(=O)O [compound 129] |
|  |  |  |  |  | ≤ 6.89 | ≤ 6.89 | ≤ 6.89 | ≤ 6.89 | CC[C@H](C)[C@H](NC(=O)[C@H](Cc1ccccc1)NC(=O)[C@H](CCC(=O)O)NC(=O)[C@H](CCCCN)NC(=O)[C@H](C)NC(=O)[C@H](C)NC(=O)[C@H](CCC(N)=O)NC(=O)CNC(=O)[C@H](CCC(=O)O)NC(=O)[C@H](CC(C)C)NC(=O)[C@H](Cc1ccc(O)cc1)NC(=O)[C@H](CO)NC(=O)[C@H](CO)NC(=O)[C@@H](NC(=O)[C@H](CC(=O)O)NC(=O)[C@](C)(CO)NC(=O)[C@@H](NC(=O)[C@H](Cc1ccccc1)NC(=O)[C@@H](NC(=O)CNC(=O)[C@H](CCC(=O)O)NC(=O)C(C)(C)NC(=O)[C@@H](N)Cc1c[nH]cn1)[C@@H](C)O)[C@@H](C)O)C(C)C)C(=O)N[C@@H](C)C(=O)N[C@@H](Cc1c[nH]c2ccccc12)C(=O)N[C@@H](CC(C)C)C(=O)N[C@H](C(=O)N[C@@H](CCCCN)C(=O)NCC(=O)N[C@@H](CCCNC(=N)N)C(N)=O)C(C)C [compound 19] |
